Experiments:
[1] = test system: porcine right coronary artery; test: Assay of vascular smooth muscle constrictor activity (isometric tension of intima-denuded artery spiral specimens); conditions: assay (1); purified compound I from porcine aortic endothelial cell culture supernatant; Krebs-Ringer solution, 37° C.
Description: Porcine right coronary artery spiral specimens (2×20 mm) with the intima denuded by rubbing with a small swab are suspended in 3 ml of Krebs-Ringer solution maintained at 37° C. and saturated with the mixed gas containing 5% carbon dioxide and 95% oxygen by volume. After setting the basal tension to 1 g, the isometric tension is measured with tension transducers.
(§1) The activity of the compound I obtained in 2 (iii) above was assayed by the method of Reference Example (1) and (2).

[2] = test system: guinea pig right atrium; test: Assay of cardiotonic action (tension and heart rate of suspended right atrium specimens); conditions: assay (2); purified compound I from porcine aortic endothelial cell culture supernatant
Description: Instead of the porcine right coronary artery spiral specimens used in the assay described in the above item (1), guinea pig right atrium suspended specimens are used, and the tension and the heart rate per minute are measured according to the same procedure as described in (1). (3) ED50
as §1

For `CC[C@H](C)[C@H](NC(=O)[C@H](CC(=O)O)NC(=O)[C@H](CC(C)C)NC(=O)[C@H](Cc1c[nH]cn1)NC(=O)[C@@H]1CSSC[C@H](N)C(=O)N[C@@H](CO)C(=O)N[C@H]2CSSC[C@H](NC(=O)[C@H](CCC(=O)O)NC(=O)[C@H](CCCCN)NC(=O)[C@H](CC(=O)O)NC(=O)[C@H](CCSC)NC(=O)[C@H](CC(C)C)NC(=O)[C@H](CO)NC(=O)[C@H](CO)NC2=O)C(=O)N[C@@H](C(C)C)C(=O)N[C@@H](Cc2ccc(O)cc2)C(=O)N[C@@H](Cc2ccccc2)C(=O)N1)C(=O)N[C@H](C(=O)N[C@@H](Cc1c[nH]c2ccccc12)C(=O)O)[C@@H](C)CC` [compound I], the “ED50 for smooth muscle constrictor activity to porcine coronary artery” value [1] was 4 to 5×10^-10 mole/l and the “ED50 for cardiotonic action to guinea pig right atrium” value [2] was 1 nM.
